This is an account of results in EP0859607B1, “GUANIDINO PROTEASE INHIBITORS” (3-DIMENSIONAL PHARMACEUTICALS, INC., priority 1995, dated 1997).

Structures can show the parent of a compound that is named as a salt.

Type in all cases: biochemical
The target of assay [1] is T1, human α-thrombin (Homo sapiens, UniProt P00734).
T1 construct: Purified human α-thrombin was diluted into assay buffer; purchased Enzyme Research Laboratories (South Bend, Indiana)
The experiment in a line: In vitro inhibition of purified enzymes, Ki determination: thrombin. Particulars: Enzyme: Thrombin; substrate Suc-Ala-Ala-Pro-Arg-pNA 20 µM; pH 7.5, 37°C. An excerpt:
(§1) Reagents: All buffer salts were obtained from Sigma Chemical Company (St. Louis, MO), and were of the highest purity available. The enzyme substrates, N-benzoyl-Phe-Val-Arg-p-nitroanilide (Sigma B7632), N-benzoyl-Ile-Glu-Gly-Arg-p-nitroanilide (Sigma B2291), N-p-tosyl-Gly-Pro-Lys-p-nitroanilide (Sigma T6140), and N-succinyl-Ala-Ala-Pro-Phe-p-nitroanilide (Sigma S7388) were all obtained from Sigma.
(§2) Human α-thrombin. human factor Xa, and human plasmin were obtained from Enzyme Research Laboratories (South Bend, Indiana). Bovine α-chymotrypsin and bovine trypsin were obtained from Sigma.
Ki Determinations: All assays are based on the ability of the test compound to inhibit the enzyme-catalyzed hydrolysis of a peptide p-nitroanilide substrate. […] The final concentration for each of the substrates is listed below. In general, substrate concentrations are lower than the experimentally determined value for Km. Test compounds are prepared as a 0.16 mg/mL solution in DMSO. Dilutions are prepared in DMSO yielding 8 final concentrations encompassing a 200-fold concentration range. Enzyme solutions are prepared at the concentrations listed below in assay buffer.
Data corresponding to less than 10% of the total substrate hydrolysis were used in the calculations. The ratio of the velocity (rate of the change in absorbance as a function of time) for a sample containing no inhibitor is divided by the velocity of a sample containing inhibitor, and is plotted as a function of inhibitor concentration. The data are fit to a linear regression, and the value of the slope of the line calculated. The inverse of the slope is the experimentally determined Ki value.
Thrombin: Thrombin activity was assessed as the ability to hydrolyze the substrate Suc-Ala-Ala-Pro-Arg-pNA. […] Final DMSO concentration was 0.3%. […] Final reagent concentrations were: [thrombin] = 0.5 nM, [Suc-Ala-Ala-Pro-Arg-pNA] = 20 µM.

The target in assay [2] is T2, human Factor Xa (Homo sapiens, UniProt P00742).
T2 construct: purchased Enzyme Research Laboratories (South Bend, Indiana)
The experiment in a line: In vitro inhibition of purified enzymes, Ki determination: factor Xa. The note with it: Enzyme: Factor Xa; substrate Bz-Ile-Glu-Gly-Arg-pNA 51 µM; pH 7.5, 37°C.
Excerpt: as §1, §2
(§3) Ki Determinations: All assays are based on the ability of the test compound to inhibit the enzyme-catalyzed hydrolysis of a peptide p-nitroanilide substrate. In a typical Ki determination, substrate is prepared in DMSO, and diluted into an assay buffer consisting of 50 mM HEPES, 200 mM NaCI, pH 7.5. The final concentration for each of the substrates is listed below. In general, substrate concentrations are lower than the experimentally determined value for Km. Test compounds are prepared as a 0.16 mg/mL solution in DMSO. Dilutions are prepared in DMSO yielding 8 final concentrations encompassing a 200-fold concentration range. […]
Factor Xa: Factor Xa activity was assessed as the ability to hydrolyze the substrate Bz-Ile-Glu-Gly-Arg-pNA. […]

For assay [3], the target named is T3, human plasmin (Homo sapiens, UniProt P00747).
T3 construct: Purified human plasmin was diluted into assay buffer; purchased Enzyme Research Laboratories (South Bend, Indiana)
Description: In vitro inhibition of purified enzymes, Ki determination: plasmin. The note with it: Enzyme: Plasmin; substrate Tos-Gly-Pro-Lys-pNA 22 µM; pH 7.5, 37°C.
Excerpt: as §1, §2
as §3, with “range. Enzyme solutions are prepared at the concentrations listed below in assay buffer.” for “range.”
Plasmin: Plasmin activity was assessed as the ability to hydrolyze the substrate Tos-Gly-Pro-Lys-pNA. […]

Assay [4] addresses T4, bovine trypsin (Bos taurus, UniProt P00760).
T4 construct: Purified bovine trypsin was diluted into assay buffer; purchased Sigma
T4 sequence (P00760 24-246): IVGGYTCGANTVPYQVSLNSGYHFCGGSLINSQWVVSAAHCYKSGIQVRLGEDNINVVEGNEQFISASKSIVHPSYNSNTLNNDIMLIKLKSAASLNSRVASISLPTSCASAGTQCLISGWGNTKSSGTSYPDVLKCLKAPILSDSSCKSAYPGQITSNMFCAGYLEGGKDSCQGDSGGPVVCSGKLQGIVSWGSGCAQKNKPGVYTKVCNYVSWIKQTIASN
Description: In vitro inhibition of purified enzymes, Ki determination: trypsin. Particulars: Enzyme: Trypsin; substrate Bz-Phe-Val-Arg-pNA 14 µM; pH 7.5, 37°C.
Excerpt: as §1, §2
as §3, with “range. Enzyme solutions are prepared at the concentrations listed below in assay buffer.” for “range.”
Trypsin: Trypsin activity was assessed as the ability to hydrolyze the substrate Bz-Phe-Val-Arg-pNA. […]

Assay [5] has as its target T5, bovine α-chymotrypsin (Bos taurus, UniProt P00766).
T5 construct: Purified bovine α-chymotrypsin was diluted into assay buffer; purchased Sigma
The experiment in a line: In vitro inhibition of purified enzymes, Ki determination: chymotrypsin. The note with it: Enzyme: Chymotrypsin; substrate Suc-Ala-Ala-Pro-Phe-pNA 14 µM; pH 7.5, 37°C.
Excerpt: as §1, §2, §3
Chymotrypsin: Chymotrypsin activity was assessed as the ability to hydrolyze the substrate Suc-Ala-Ala-Pro-Phe-pNA. […]

T2 sequence (P00742 235-488 limits assumed): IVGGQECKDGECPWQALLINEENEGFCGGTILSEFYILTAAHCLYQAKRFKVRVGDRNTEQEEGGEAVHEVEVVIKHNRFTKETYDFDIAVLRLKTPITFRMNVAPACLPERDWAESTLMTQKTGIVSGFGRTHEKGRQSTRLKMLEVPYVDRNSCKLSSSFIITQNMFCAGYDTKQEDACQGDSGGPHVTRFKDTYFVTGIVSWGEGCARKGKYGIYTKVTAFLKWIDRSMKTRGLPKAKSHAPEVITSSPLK
T2 sequence (P00742 41-179 partner limits assumed): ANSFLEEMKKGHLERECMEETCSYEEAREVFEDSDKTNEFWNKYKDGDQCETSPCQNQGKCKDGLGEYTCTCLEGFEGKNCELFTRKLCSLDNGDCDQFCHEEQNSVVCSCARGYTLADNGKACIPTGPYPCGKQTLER
T3 sequence (P00747 581-810 limits assumed): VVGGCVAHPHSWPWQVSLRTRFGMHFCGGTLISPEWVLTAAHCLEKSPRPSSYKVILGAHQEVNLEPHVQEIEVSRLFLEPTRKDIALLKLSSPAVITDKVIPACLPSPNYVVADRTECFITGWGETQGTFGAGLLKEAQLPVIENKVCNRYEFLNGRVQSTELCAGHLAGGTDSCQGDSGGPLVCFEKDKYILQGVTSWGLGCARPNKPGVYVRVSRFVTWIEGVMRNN
T3 sequence (P00747 97-580 partner limits assumed): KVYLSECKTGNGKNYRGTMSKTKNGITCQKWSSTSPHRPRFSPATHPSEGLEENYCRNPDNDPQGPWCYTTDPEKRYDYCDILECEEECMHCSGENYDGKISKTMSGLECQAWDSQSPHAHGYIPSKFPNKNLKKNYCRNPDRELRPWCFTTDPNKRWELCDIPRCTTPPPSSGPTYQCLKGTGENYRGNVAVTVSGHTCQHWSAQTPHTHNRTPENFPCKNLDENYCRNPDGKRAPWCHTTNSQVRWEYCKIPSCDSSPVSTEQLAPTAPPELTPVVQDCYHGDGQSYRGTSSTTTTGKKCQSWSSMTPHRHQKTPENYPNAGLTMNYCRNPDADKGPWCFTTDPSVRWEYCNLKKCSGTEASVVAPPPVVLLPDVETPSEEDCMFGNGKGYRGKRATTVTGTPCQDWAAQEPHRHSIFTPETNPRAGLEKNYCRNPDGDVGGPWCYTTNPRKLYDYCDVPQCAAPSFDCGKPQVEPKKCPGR

Regarding “2,3-Dichlorobenzenesulfonic acid 3-[[1-(aminoiminomethyl)piperidin-4-yl]methoxy]-5-methylphenyl ester hydrochloride [Example 42]”, in assay [1], the Ki worked out at 21 nM.

Turning to “2-Chlorobenzenesulfonic acid 3-[2-[1-(aminoiminomethyl)piperazin-4-yl]ethoxy]-5-methylphenyl ester diacetic acid salt [Example 6]”, in assay [1], affinity was put at a Ki of 330 nM.

“2-Chlorobenzenesulfonic acid 3-[[1-(aminoiminomethyl)piperidin-3-yl]methoxy]-5-methylphenyl ester [Example 4]” came in with an inhibition constant (Ki) in assay [2] of 58100 nM.

On to “2-Chlorobenzenesulfonic acid 3-[[1-(aminoiminomethyl)piperidin-4-yl]methoxy]-5-chlorophenyl ester hydrochloride [Example 24]”, for which the Ki in assay [1] was 40 nM.

Take “2-Chlorobenzenesulfonic acid 3-[[1-(aminoiminomethyl)piperidin-4-yl]methoxy]-5-hydroxymethylphenylester [Example 44]”: the Ki in assay [1] worked out at 6900 nM.

Consider “2-Chlorobenzenesulfonic acid 3-[[1-(aminoiminomethyl)piperidin-4-yl]methoxy]phenyl ester [Example 1]”, for which the Ki in assay [1] worked out at 250 nM. Against the preceding compound, the Ki is about 28-fold lower.

As for “2-Chlorobenzenesulfonic acid, 3-[[1-(aminoiminomethyl)piperidin-4-yl]methoxy]-5-methylphenyl ester [Example 3]”, in assay [1], the Ki came to 8 nM.

Consider “2-Trifluoromethylbenzenesulfonic acid 3-[[1-(aminoiminomethyl)piperidin-4-yl]methoxy]-5-methylphenyl ester acetic acid salt [Example 38]”, for which the inhibitory constant (Ki) in assay [1] amounted to 19 nM. Against the preceding compound, the Ki is about 2.4-fold higher.

“3-Amino-2-chlorobenzenesulfonic acid 3-[[1-(aminoiminomethyl)piperidin-4-yl]methoxy]-5-methylphenyl ester dihydrochloride [Example 33]” returned a Ki in assay [1] of 34 nM.

In turn, `N=C(N)N1CCN(CCOc2cccc(OS(=O)(=O)c3ccccc3Cl)c2)CC1` [Example 5, 2-Chlorobenzenesulfonic acid 3-[2-[1-(aminoiminomelhyl)piperazin-4-yl]ethoxy]phenyl ester diacetic acid salt] showed a Ki in assay [3] of 29200 nM. This counts as double-digit micromolar.

Regarding `N=C(N)N1CCC(CNc2cccc(N(Cc3ccccc3)S(=O)(=O)c3ccccc3)c2)CC1` [Example 11, N-benzyl-N-[[3-(1-aminoiminomethyl)-piperidin-4-ylmethylamino]phenyl]benzenesulfonamide], in assay [4], the Ki stood at 5300 nM.

`N=C(N)N1CCC(COc2cc(OS(=O)(=O)c3ccccc3Cl)ccc2Cc2ccccc2)CC1` [Example 12, 2-Chlorobenzenesulfonic acid 3-[[1-aminoiminomethyl)piperidin-4-yl]methoxy]-4-benzylphenyl ester acetic acid salt]: the affinity in assay [5] corresponds to a Ki of 12600 nM. This counts as double-digit micromolar.

“Benzenesulfonic acid 3-[[1-(aminoiminomethyl)piperidin-4-yl]methoxy]-5-methylphenyl ester acetic acid salt [Example 17]” yielded a Ki in assay [1] of 36 nM. This lies in the double-digit nanomolar range.

The Ki is a measure of affinity in units of concentration, obtained from inhibition or displacement. Read a low Ki as a stronger hold on the target.
